Reference: ChEMBL document CHEMBL3751695, “Cationic lipid-conjugated hydrocortisone as selective antitumor agent” (Eur J Med Chem, 2016)
The source made the active and inactive calls. The rule behind the calls is not given here.

Experiments:
RAW264.7 [1] = assay: Induction of apoptosis in mouse RAW264.7 cells assessed as late apoptotic cells at 20 uM after 24 hrs by annexin-V-FITC/propidium iodide staining based flow cytometry (reference value: 5.64 %); type: cell-based; conditions: raw264.7, 24 h
[2] = Induction of apoptosis in mouse NIH/3T3 cells assessed as necrotic cells at 20 uM after 24 hrs by annexin-V-FITC/propidium iodide staining based flow cytometry (reference value: 0.24 %); type: cell-based; conditions: nih3t3, 24 h
A549 [3] = assay: Cytotoxicity against human A549 cells at 5 and 10 uM after 72 hrs cells pretreated with 50 uM of RU486 for 4 hrs by MTT assay; type: functional, cell-based
B16-F10 [4] = assay: Induction of apoptosis in mouse B16F10 cells assessed as increase in p53 expression at 20 uM after 36 hrs by […]; type: functional, cell-based
[5] = Cell cycle arrest in mouse B16F10 cells assessed as accumulation at G2/M phase at 20 uM after 24 hrs by propidium iodide staining based flow cytometry (reference value: 15.2 %); type: functional; conditions: B16-F10
B16-F10 [6] = assay: Antitumor activity in mouse B16F10 cells xenografted in C57BL/J mouse assessed as induction of apoptosis in tumor vasculature at 10 mg/kg, ip by TUNEL assay; type: functional, organism-based
B16-F10 [7] = assay: Antitumor activity in mouse B16F10 cells xenografted in C57BL/J mouse assessed as increase of apoptotic protein cytochrome C level in tumor lysates at 10 mg/kg, ip by western blot analysis; type: functional, organism-based; conditions: Neoplasm, Lysate
Gallus gallus = species on record: Gallus gallus; assay: Antiangiogenic activity in chicken embryo assessed as complete degradation of existing blood vessels at 80 uM after 4 hrs by microscopic analysis; type: functional, tissue-based; conditions: Blood vessel
B16-F10 [8] = assay: Inhibition of cell migration in mouse B16F10 cells at 20 uM after 36 hrs by wound healing assay; type: functional, cell-based
B16-F10 [9] = assay: Induction of apoptosis in mouse B16F10 cells assessed as increased Bax expression at 10 uM after 36 hrs by western blot analysis; type: functional, cell-based
B16-F10 [10] = assay: Induction of apoptosis in mouse B16F10 cells assessed as increase in cleaved caspase 3 level at 10 uM after 36 hrs by western blot analysis; type: functional, cell-based
B16-F10 [11] = assay: Effect on Bcl-2 expression in mouse B16F10 cells at 10 and 20 uM after 36 hrs by western blot analysis; type: functional, cell-based
B16-F10 [12] = assay: Induction of apoptosis in mouse B16F10 cells assessed as increase in ratio of Bax/Bcl2 level at 20 uM after 36 hrs by western blot analysis (reference value: 0.2); type: functional
B16-F10 [13] = assay: Antitumor activity in mouse B16F10 cells xenografted in C57BL/J mouse assessed as increase of apoptotic protein cleaved caspase 9 level in tumor lysates at 10 mg/kg, ip by western blot analysis; type: functional, organism-based; conditions: Neoplasm, Lysate
[14] = Antitumor activity in mouse B16F10 cells xenografted in C57BL/J mouse assessed as increase in ratio of Bax/Bcl2 in tumor lysates at 10 mg/kg, ip by western blot analysis (reference value: 0.4); type: functional, Neoplasm, B16-F10
[15] = Cytotoxicity against mouse B16F10 cells after 72 hrs by MTT assay; type: functional, cell-based; conditions: B16-F10, 72 h
[16] = Cytotoxicity against human SKOV3 cells after 72 hrs by MTT assay; type: functional, cell-based; conditions: SK-OV-3, 72 h
RAW264.7 [17] = assay: Cytotoxicity against mouse RAW264.7 cells after 72 hrs by MTT assay; type: cell-based; conditions: RAW264.7, 72 h
A549 [18] = assay: Induction of apoptosis in human A549 cells assessed as viable cells at 20 uM after 24 hrs by annexin-V-FITC/propidium iodide staining based flow cytometry (reference value: 87.96 %); type: functional; conditions: A549, 24 h, read-out: Activity
B16-F10 [19] = assay: Induction of apoptosis in mouse B16F10 cells assessed as late apoptotic cells at 20 uM after 24 hrs by annexin-V-FITC/propidium iodide staining based flow cytometry (reference value: 4.47 %); type: functional
[20] = Induction of apoptosis in mouse RAW264.7 cells assessed as viable cells at 20 uM after 24 hrs by annexin-V-FITC/propidium iodide staining based flow cytometry (reference value: 89.11 %); type: cell-based; conditions: read-out: Activity

## CCCCCCCCCCCCCCCC[N+](C)(CCCCCCCCCCCCCCCC)CCNC(=O)[C@@]1(O)CC[C@H]2[C@@H]3CCC4=CC(=O)CC[C@]4(C)[C@H]3[C@@H](O)C[C@@]21C.[Cl-]
RAW264.7 [1]
  Activity: 2.83%
[2]
  Activity: 0.51%
A549 [3]
  Activity: Active
B16-F10 [4]
  Activity: Active
[5]
  Activity: 41.4%
B16-F10 [6]
  Activity: Active
B16-F10 [7]
  Activity: Active
Gallus gallus
  Activity: Active
B16-F10 [8]
  inhibition: Active
B16-F10 [9]
  Activity: Active
B16-F10 [10]
  Activity: Active
B16-F10 [11]
  Activity: inactive
B16-F10 [12]
  Ratio: 0.6
B16-F10 [13]
  Activity: Active
[14]
  Ratio: 2.1
[15]
  IC50: 6.2 µM
[16]
  IC50: 3.5 µM
RAW264.7 [17]
  IC50: 18.4 µM
A549 [18]
  viability at 20 µM: 25.1%
B16-F10 [19]
  Activity: 32.41%
[20]
  viability at 24 h, 20 µM: 94.2%
